Laboratory results published in US4666886A, “Novel peptide derivatives” (Ciba-Geigy Corporation, priority 1983, dated 1987).
Square brackets hold non-standard residues; d marks the D form. Peptide text beside a SMILES is read from it. * marks the point of attachment. X2 = CCCCCCCCCCCC(=O)OC[C@H](C*)OC(=O)CCCCCCCCCCC; Palmitoyl = CCCCCCCCCCCCCCCC(=O)*

Test system: Alveolar rat macrophages
Assay: Activation of alveolar rat macrophages: specific cytotoxicity against 125I-marked tumour cells
Assay type: cell-based
Procedure: Alveolar rat macrophages are obtained by lung lavage, plated out and incubated in vitro from 24 hours either with liposomes that are charged with the active ingredient, or with the active ingredient in physiological salt solution (phosphate buffered saline, PBS), ^125 I-marked tumour cells are added and incubation is continued for a further 72 hours. Subsequently the dead tumour cells are washed away and the number of tumour cells still living is determined on the basis of their radioactivity. The macrophage activation is assessed on the basis of the cytotoxicity, that is to say according to the proportion of tumour cells dead at the end of the test. The specific cytotoxicity [%] is calculated as follows: [formula] Further details of the above-mentioned test method are described in I. J. Fidler et al., J. Biol. Response Modifiers 1, 43-55 (1982).

CCCCCCCCCCCCCCCC(=O)N[C@@H](CSC[C@@H](COC(=O)CCCCCCCCCCC)OC(=O)CCCCCCCCCCC)C(=O)N[C@H](C)C(=O)N[C@@H](C)C(=O)N[C@H](CCC(=O)O)C(N)=O [R, palmitoyl-Cys(2[R], 3-dilauroyloxy-propyl)-D-Ala-Ala-D-Glu-NH2] (Palmitoyl-C(X2)[dA]A[dE]-NH2)
Specific cytotoxicity [%] (active ingredient in 100 μg of liposomes per 0.2 ml, 0.02 μg/culture): 20%
Specific cytotoxicity [%] (active ingredient in 100 μg of liposomes per 0.2 ml, 0.2 μg/culture): 18%
Specific cytotoxicity [%] (active ingredient in 100 μg of liposomes per 0.2 ml, 2 μg/culture): 86%
Specific cytotoxicity [%] (active ingredient in 0.2 ml of PBS, 0.02 μg/culture): 0%
Specific cytotoxicity [%] (active ingredient in 0.2 ml of PBS, 0.2 μg/culture): 84%
Specific cytotoxicity [%] (active ingredient in 0.2 ml of PBS, 2 μg/culture): 51%
